Laboratory results reported in the NIST ThermoML archive (doi:10.1016/j.fluid.2019.06.001).
± gives the expanded uncertainty stated by the source.

Details: Fluid (supercritical or subcritical phases), Brillouin light scattering technique

Question: What does the source list for `CCCCCC` [hexane]?
Answer: speed of sound (509.17 K, 3500 kPa): 162.1 ± 9.4 m/s; speed of sound (509.4 K, 4500 kPa): 243.8 ± 14 m/s; speed of sound (509.44 K, 6500 kPa): 331.1 ± 21 m/s; speed of sound (509.57 K, 5500 kPa): 291.1 ± 18 m/s; speed of sound (509.67 K, 7500 kPa): 361.3 ± 25 m/s; speed of sound (511.22 K, 5500 kPa): 286.1 ± 17 m/s; speed of sound (511.26 K, 4500 kPa): 232.7 ± 13 m/s; speed of sound (511.27 K, 6500 kPa): 324.2 ± 21 m/s; speed of sound (511.34 K, 7500 kPa): 355.3 ± 24 m/s; speed of sound (511.69 K, 3500 kPa): 138.7 ± 8.8 m/s; speed of sound (514.25 K, 7500 kPa): 347.2 ± 23 m/s; speed of sound (514.43 K, 6500 kPa): 314.1 ± 20 m/s; speed of sound (514.46 K, 3500 kPa): 112.5 ± 8.6 m/s; speed of sound (514.5 K, 4500 kPa): 216.4 ± 12 m/s; speed of sound (514.6 K, 5500 kPa): 272 ± 16 m/s; speed of sound (517.46 K, 7500 kPa): 336.8 ± 22 m/s; speed of sound (517.47 K, 4500 kPa): 201.9 ± 11 m/s; speed of sound (517.58 K, 6500 kPa): 303.6 ± 18 m/s; speed of sound (517.72 K, 3500 kPa): 95.8 ± 8.2 m/s; speed of sound (517.82 K, 5500 kPa): 260.2 ± 15 m/s; speed of sound (519.87 K, 3500 kPa): 100.4 ± 7.2 m/s; speed of sound (520.19 K, 7500 kPa): 328.5 ± 21 m/s; speed of sound (520.36 K, 4500 kPa): 183.7 ± 10 m/s; speed of sound (520.46 K, 6500 kPa): 289 ± 17 m/s; speed of sound (520.54 K, 5500 kPa): 245.2 ± 14 m/s; speed of sound (523.4 K, 4500 kPa): 168.4 ± 8.9 m/s; speed of sound (523.63 K, 6500 kPa): 278.2 ± 16 m/s; speed of sound (523.79 K, 3500 kPa): 112.7 ± 6.2 m/s; speed of sound (523.89 K, 5500 kPa): 229.4 ± 13 m/s; speed of sound (523.93 K, 7500 kPa): 316.5 ± 20 m/s; speed of sound (527.66 K, 4500 kPa): 155 ± 7.6 m/s; speed of sound (527.85 K, 3500 kPa): 120.4 ± 5.5 m/s; speed of sound (528.22 K, 5500 kPa): 210.9 ± 11 m/s; speed of sound (528.42 K, 7500 kPa): 304.2 ± 18 m/s; speed of sound (528.58 K, 6500 kPa): 263.2 ± 15 m/s; speed of sound (533.3 K, 4500 kPa): 131.7 ± 6 m/s; speed of sound (533.43 K, 7500 kPa): 285.3 ± 17 m/s; speed of sound (533.48 K, 6500 kPa): 248.1 ± 14 m/s; speed of sound (533.62 K, 5500 kPa): 194.1 ± 10 m/s; speed of sound (533.83 K, 3500 kPa): 134.2 ± 5.7 m/s; speed of sound (538.14 K, 4500 kPa): 125 ± 5.5 m/s; speed of sound (538.33 K, 5500 kPa): 174.8 ± 9 m/s; speed of sound (538.58 K, 6500 kPa): 231.5 ± 13 m/s; speed of sound (538.81 K, 7500 kPa): 270.8 ± 16 m/s; speed of sound (538.84 K, 3500 kPa): 140.1 ± 6.1 m/s; speed of sound (543 K, 4500 kPa): 125.6 ± 5.4 m/s; speed of sound (543.14 K, 6500 kPa): 219.9 ± 12 m/s; speed of sound (543.21 K, 5500 kPa): 165.4 ± 8.1 m/s; speed of sound (543.52 K, 7500 kPa): 259.9 ± 15 m/s; speed of sound (543.69 K, 3500 kPa): 145.3 ± 6.3 m/s; speed of sound (547.89 K, 5500 kPa): 158.2 ± 7.6 m/s; speed of sound (547.96 K, 4500 kPa): 130.2 ± 5.6 m/s; speed of sound (548.14 K, 6500 kPa): 207.4 ± 11 m/s; speed of sound (548.31 K, 3500 kPa): 149.2 ± 6.8 m/s; speed of sound (548.56 K, 7500 kPa): 248.3 ± 14 m/s; speed of sound (553.1 K, 3500 kPa): 155.1 ± 7.1 m/s; speed of sound (553.44 K, 7500 kPa): 235.1 ± 13 m/s; speed of sound (553.55 K, 6500 kPa): 194.1 ± 9.8 m/s; speed of sound (553.6 K, 4500 kPa): 134.9 ± 5.8 m/s; speed of sound (554.09 K, 5500 kPa): 150.9 ± 7 m/s; speed of sound (558.44 K, 3500 kPa): 161.5 ± 7.3 m/s; speed of sound (558.48 K, 4500 kPa): 139.2 ± 6 m/s; speed of sound (558.9 K, 5500 kPa): 144.8 ± 6.4 m/s; speed of sound (559.79 K, 6500 kPa): 180.9 ± 8.9 m/s; speed of sound (560.33 K, 7500 kPa): 222.2 ± 12 m/s; speed of sound (562.44 K, 4500 kPa): 142.8 ± 6.1 m/s; speed of sound (562.56 K, 3500 kPa): 164.9 ± 7.5 m/s; speed of sound (563.13 K, 5500 kPa): 143.4 ± 6.2 m/s; speed of sound (563.76 K, 6500 kPa): 171.7 ± 8.4 m/s; speed of sound (563.92 K, 7500 kPa): 215.1 ± 11 m/s; speed of sound (567.95 K, 4500 kPa): 150.6 ± 6.8 m/s; speed of sound (568.21 K, 3500 kPa): 168.8 ± 7.9 m/s; speed of sound (568.4 K, 5500 kPa): 146.5 ± 6.6 m/s; speed of sound (568.54 K, 7500 kPa): 205.6 ± 11 m/s; speed of sound (568.59 K, 6500 kPa): 169 ± 8.1 m/s; speed of sound (573.12 K, 7500 kPa): 201.1 ± 10 m/s; speed of sound (573.18 K, 5500 kPa): 150 ± 6.7 m/s; speed of sound (573.36 K, 4500 kPa): 155.7 ± 7 m/s; speed of sound (573.51 K, 6500 kPa): 165.9 ± 7.6 m/s; speed of sound (574.58 K, 3500 kPa): 174.8 ± 8.2 m/s; speed of sound (578.08 K, 4500 kPa): 161.3 ± 7.2 m/s; speed of sound (578.22 K, 5500 kPa): 154 ± 6.9 m/s; speed of sound (578.65 K, 6500 kPa): 167.9 ± 7.9 m/s; speed of sound (578.77 K, 3500 kPa): 177.5 ± 8.3 m/s; speed of sound (579.07 K, 7500 kPa): 191.7 ± 9.4 m/s; speed of sound (582.79 K, 5500 kPa): 157.3 ± 7 m/s; speed of sound (582.93 K, 4500 kPa): 164.7 ± 7.4 m/s; speed of sound (583.09 K, 6500 kPa): 165.5 ± 7.4 m/s; speed of sound (583.3 K, 7500 kPa): 190.5 ± 9.4 m/s; speed of sound (584.09 K, 3500 kPa): 183 ± 8.6 m/s; speed of sound (587.91 K, 4500 kPa): 170.5 ± 8 m/s; speed of sound (588.07 K, 5500 kPa): 160.4 ± 7.1 m/s; speed of sound (588.45 K, 6500 kPa): 166.4 ± 7.5 m/s; speed of sound (588.59 K, 3500 kPa): 186.5 ± 8.7 m/s; speed of sound (589.01 K, 7500 kPa): 188.8 ± 9.3 m/s; speed of sound (592.61 K, 5500 kPa): 164.2 ± 7.3 m/s; speed of sound (592.78 K, 6500 kPa): 168.5 ± 7.9 m/s; speed of sound (593.04 K, 4500 kPa): 174.8 ± 8.1 m/s; speed of sound (593.24 K, 7500 kPa): 187.8 ± 9.2 m/s; speed of sound (594.05 K, 3500 kPa): 188.6 ± 9.2 m/s; speed of sound (597.84 K, 4500 kPa): 178.5 ± 8.3 m/s; speed of sound (597.98 K, 5500 kPa): 169.1 ± 7.9 m/s; speed of sound (598.14 K, 6500 kPa): 168.6 ± 7.8 m/s; speed of sound (598.52 K, 7500 kPa): 186.2 ± 8.7 m/s; speed of sound (598.83 K, 3500 kPa): 192.2 ± 9.3 m/s; speed of sound (602.73 K, 4500 kPa): 181.2 ± 8.4 m/s; speed of sound (602.85 K, 5500 kPa): 172 ± 8 m/s; speed of sound (603.05 K, 6500 kPa): 173.4 ± 8.1 m/s; speed of sound (603.41 K, 3500 kPa): 195.9 ± 9.5 m/s; speed of sound (603.44 K, 7500 kPa): 186 ± 8.7 m/s; speed of sound (608.03 K, 4500 kPa): 183.5 ± 8.5 m/s; speed of sound (608.05 K, 5500 kPa): 178 ± 8.3 m/s; speed of sound (608.12 K, 6500 kPa): 175.1 ± 8.1 m/s; speed of sound (608.49 K, 7500 kPa): 185.6 ± 8.6 m/s; speed of sound (608.96 K, 3500 kPa): 198.5 ± 9.6 m/s; speed of sound (612.5 K, 5500 kPa): 180.2 ± 8.4 m/s; speed of sound (612.69 K, 6500 kPa): 179.7 ± 8.3 m/s; speed of sound (612.7 K, 4500 kPa): 187 ± 9.1 m/s; speed of sound (613.43 K, 7500 kPa): 187.8 ± 9.1 m/s; speed of sound (614.5 K, 3500 kPa): 203.1 ± 9.9 m/s; speed of sound (617.91 K, 4500 kPa): 193.6 ± 9.4 m/s; speed of sound (618.05 K, 5500 kPa): 184.3 ± 8.5 m/s; speed of sound (618.21 K, 6500 kPa): 182 ± 8.4 m/s; speed of sound (618.56 K, 7500 kPa): 190.1 ± 9.2 m/s; speed of sound (618.79 K, 3500 kPa): 204.3 ± 9.9 m/s; speed of sound (622.49 K, 6500 kPa): 184.8 ± 8.6 m/s; speed of sound (622.59 K, 7500 kPa): 191 ± 9.2 m/s; speed of sound (622.8 K, 5500 kPa): 186.5 ± 8.6 m/s; speed of sound (623.06 K, 4500 kPa): 195.6 ± 9.5 m/s; speed of sound (624.52 K, 3500 kPa): 206.1 ± 10 m/s; speed of sound (628.11 K, 5500 kPa): 190.4 ± 9.2 m/s; speed of sound (628.12 K, 7500 kPa): 194.6 ± 9.4 m/s; speed of sound (628.15 K, 4500 kPa): 198.3 ± 9.6 m/s; speed of sound (628.16 K, 6500 kPa): 189 ± 9.1 m/s; speed of sound (629.29 K, 3500 kPa): 209.3 ± 10 m/s; speed of sound (632.52 K, 4500 kPa): 202.1 ± 9.8 m/s; speed of sound (632.99 K, 6500 kPa): 192.3 ± 9.3 m/s; speed of sound (633.06 K, 7500 kPa): 196.8 ± 9.5 m/s; speed of sound (633.07 K, 5500 kPa): 193.6 ± 9.4 m/s; speed of sound (633.86 K, 3500 kPa): 210.4 ± 11 m/s; speed of sound (635.27 K, 7500 kPa): 198 ± 9.6 m/s; speed of sound (635.5 K, 6500 kPa): 194.3 ± 9.4 m/s; speed of sound (636.04 K, 5500 kPa): 195 ± 9.4 m/s; speed of sound (636.79 K, 4500 kPa): 204.9 ± 9.9 m/s; speed of sound (637.99 K, 3500 kPa): 211.6 ± 11 m/s
